The text below walks through data of patent publication US4656166A, “Antibiotic compounds derived from cephalosporins, process for their production and pharmaceutical compositions” (Sanofi, priority 1983, dated 1987).

SMILES strings stand for the structures. In brackets after ≈: the same amount, converted by molar mass.

The term MIC denotes the lowest concentration found to suppress growth.

Format in all cases: cell-based
One experiment deals with Citrobacter RL 49. Kind of experiment: MIC, in vitro dilution method, Citrobacter RL 49 (Table III). The conditions noted are these: RL49; Citrobacter RL 49; dilution method; read-out: MIC. The text has this: (§1) The products of the invention have been studied as regards their pharmacological properties and, more especially, bacteriostatic action. This has been determined in vitro by the dilution method, and the study was on Gram negative strains.
(§2) Results, expressed in minimum inhibiting concentrations (MIC-- μg/ml), are collected in the following table (Table III).

Experiment [1] relates to Proteus vulgaris RL 99 bis. Kind of experiment: MIC, in vitro dilution method, Proteus vulgaris RL 99 bis (Table III). Conditions: RL99BIS; Proteus vulgaris RL 99 bis; dilution method; read-out: MIC.
From the text: as §1, §2

A further experiment relates to Klebsiella RO 30. Kind of experiment: MIC, in vitro dilution method, Klebsiella RO 30 (Table III). Conditions: RO30; Klebsiella RO 30; dilution method; read-out: MIC. The essentials:
(§3)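 Bacteriostatic activity was determined in vitro by the dilution method against Gram-negative strains. Values are minimum inhibitory concentrations in μg/ml.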

Another experiment has as its system Pseudomonas RL 112. Kind of experiment: MIC, in vitro dilution method, Pseudomonas RL 112 (Table III). The conditions noted are these: RL112. The essentials:
as §3

Another experiment concerns Serratia RL 72. In words: MIC, in vitro dilution method, Serratia RL 72 (Table III). Conditions: RL72.
From the text: as §1, §2

The next experiment relates to Escherichia coli SOL 90. In words: MIC, in vitro dilution method, Escherichia coli SOL 90 (Table III). The conditions noted are these: SOL90; Escherichia coli SOL 90; dilution method; read-out: MIC. The essentials: as §3
The subject of another experiment is Enterobacter RO 154. In words: MIC, in vitro dilution method, Enterobacter RO 154 (Table III). Conditions: RO154; Enterobacter RO 154; dilution method; read-out: MIC. The essentials:
as §3

The subject of another experiment is Escherichia coli 255/L.7. Kind of experiment: MIC on strain not producing beta-lactamase, Escherichia coli 255/L.7 (Table IV). The conditions noted are these: Escherichia coli 255/L.7 *, not producing beta-lactamases; read-out: MIC. As for the experimental part:
(§4) To evaluate the stability of these products towards beta-lactamases, their MIC was determined on isogenic strains producing and not producing beta-lactamases.
(§5) The results are expressed in μg/ml in Table IV.

For experiment [2], the system named is Proteus vulgaris GN 76/C.1. Kind of experiment: MIC on beta-lactamase producing strain Proteus vulgaris GN 76/C.1 (Table IV). The conditions noted are these: GN76; Proteus vulgaris GN 76/C.1, producing beta-lactamases; read-out: MIC. As to the method:
as §4, §5

The subject of experiment [3] is Serrtia liquefaciens SL 1326 S. In words: MIC on strain not producing beta-lactamase, Serratia liquefaciens SL 1326 S (Table IV). Conditions: SL1326S, not producing beta-lactamases. As to the method:
as §4, §5

The next experiment deals with Escherichia coli 255. Kind of experiment: MIC on beta-lactamase producing strain Escherichia coli 255 (Table IV). Conditions: Escherichia coli 255, producing beta-lactamases; read-out: MIC. As to the method:
as §4, §5

In experiment [4] the test system is Serrtia liquefaciens SL/326 A. In words: MIC on beta-lactamase producing strain Serratia liquefaciens SL/326 A (Table IV). As to the method: as §4, §5

Consider `Cc1ccc(CN)c(C)c1C(=O)OCC1=C(C(=O)O)N2C(=O)C(NC(=O)C(=NOC3(C(=O)O)CCC3)c3csc(N)n3)C2[S+]([O-])C1` (centres unmarked) [42 541], for which the MIC in the experiment with Citrobacter RL 49 was 0.25 µg/mL (≈ 0.371 µM); in [1], no more than 0.125 µg/mL; in the experiment on Klebsiella RO 30, no more than 0.125 µg/mL; in the experiment with Pseudomonas RL 112, 4 µg/mL (≈ 5.93 µM); with Serratia RL 72 it was 0.5 µg/mL (≈ 0.741 µM); in the experiment on Escherichia coli SOL 90, 0.5 µg/mL (≈ 0.741 µM). In addition, the MIC in the experiment with Enterobacter RO 154 amounted to 0.25 µg/mL (≈ 0.371 µM).
With `Cc1cc(C)c(C(=O)OCC2=C(C(=O)O)N3C(=O)C(NC(=O)C(=NOC4(C(=O)O)CCC4)c4csc(N)n4)C3[S+]([O-])C2)c(C)c1CN` (centres unmarked) [42 542], the MIC is 0.5 µg/mL (≈ 0.726 µM) with Citrobacter RL 49; no more than 0.125 µg/mL in experiment [1]; no more than 0.25 µg/mL in the experiment with Klebsiella RO 30; 8 µg/mL (≈ 11.6 µM) in the experiment with Pseudomonas RL 112; 0.5 µg/mL (≈ 0.726 µM) against Serratia RL 72; 0.5 µg/mL (≈ 0.726 µM) in the experiment on Escherichia coli SOL 90. The MIC in the experiment with Enterobacter RO 154 was 0.5 µg/mL (≈ 0.726 µM).
Turning to `CC(ON=C(C(=O)NC1C(=O)N2C(C(=O)O)=C(CSC(=O)C3CCNCC3)C[S+]([O-])C12)c1csc(N)n1)C(=O)O` (centres unmarked) [compound 42218], the MIC in the experiment on Citrobacter RL 49 turned out to be 0.25 µg/mL (≈ 0.407 µM); in [1], 0.5 µg/mL (≈ 0.813 µM); in the experiment on Klebsiella RO 30, 0.5 µg/mL (≈ 0.813 µM); in the experiment with Pseudomonas RL 112, 64 µg/mL (≈ 104 µM); against Serratia RL 72, 2 µg/mL (≈ 3.25 µM); with Escherichia coli SOL 90, 0.5 µg/mL (≈ 0.813 µM). Further, the MIC in the experiment with Enterobacter RO 154 came to 0.5 µg/mL (≈ 0.813 µM).
On to `Nc1nc(C(=NOC2(C(=O)O)CCC2)C(=O)NC2C(=O)N3C(C(=O)O)=C(CSC(=O)C4CCNCC4)C[S+]([O-])C23)cs1` (centres unmarked) [compound 42219], for which the MIC with Citrobacter RL 49 is no more than 0.12 µg/mL; in experiment [1], no more than 0.12 µg/mL; with Klebsiella RO 30, 0.5 µg/mL (≈ 0.78 µM); in the experiment on Pseudomonas RL 112 it was 4 µg/mL (≈ 6.24 µM); against Serratia RL 72, 1 µg/mL (≈ 1.56 µM); in the experiment on Escherichia coli SOL 90, 0.5 µg/mL (≈ 0.78 µM). Moreover, the MIC in the experiment with Enterobacter RO 154 amounted to 0.5 µg/mL (≈ 0.78 µM).
`CC(ON=C(C(=O)NC1C(=O)N2C(C(=O)O)=C(CSC(=O)c3ccc(CN)cc3)C[S+]([O-])C12)c1csc(N)n1)C(=O)O` (centres unmarked) [compound 42221]: the MIC is no more than 0.12 µg/mL with Citrobacter RL 49; no more than 0.12 µg/mL in experiment [1]; no more than 0.12 µg/mL with Klebsiella RO 30; 64 µg/mL (≈ 101 µM) in the experiment on Pseudomonas RL 112; 2 µg/mL (≈ 3.14 µM) against Serratia RL 72; 0.25 µg/mL (≈ 0.393 µM) in the experiment with Escherichia coli SOL 90. In addition, the MIC in the experiment on Enterobacter RO 154 was 0.25 µg/mL (≈ 0.393 µM).
Regarding `NCc1ccc(C(=O)SCC2=C(C(=O)O)N3C(=O)C(NC(=O)C(=NOC4(C(=O)O)CCC4)c4csc(N)n4)C3[S+]([O-])C2)cc1` (centres unmarked) [compound 42222], the MIC in the experiment on Citrobacter RL 49 is no more than 0.12 µg/mL; in experiment [1] it was no more than 0.12 µg/mL; in the experiment with Klebsiella RO 30 it was 0.5 µg/mL (≈ 0.754 µM); with Pseudomonas RL 112, 8 µg/mL (≈ 12.1 µM); against Serratia RL 72, 1 µg/mL (≈ 1.51 µM); in the experiment with Escherichia coli SOL 90, 0.5 µg/mL (≈ 0.754 µM). Also, in the experiment with Enterobacter RO 154, the MIC is 0.5 µg/mL (≈ 0.754 µM).
Regarding `NCc1cccc(C(=O)SCC2=C(C(=O)O)N3C(=O)C(NC(=O)C(=NOC4(C(=O)O)CCC4)c4csc(N)n4)C3[S+]([O-])C2)c1` (centres unmarked) [compound 42532], the MIC is 0.25 µg/mL (≈ 0.377 µM) in the experiment on Citrobacter RL 49; no more than 0.125 µg/mL in [1]; 0.25 µg/mL (≈ 0.377 µM) in the experiment with Klebsiella RO 30; 8 µg/mL (≈ 12.1 µM) against Pseudomonas RL 112; 1 µg/mL (≈ 1.51 µM) against Serratia RL 72; 0.5 µg/mL (≈ 0.754 µM) in the experiment with Escherichia coli SOL 90. Besides, in the experiment with Enterobacter RO 154, the MIC is 0.5 µg/mL (≈ 0.754 µM).
In the case of `CNCc1ccc(C(=O)SCC2=C(C(=O)O)N3C(=O)C(NC(=O)C(=NOC4(C(=O)O)CCC4)c4csc(N)n4)C3[S+]([O-])C2)cc1` (centres unmarked) [compound 42534], the MIC is 0.25 µg/mL (≈ 0.369 µM) in the experiment on Citrobacter RL 49; no more than 0.125 µg/mL in experiment [1]; 0.25 µg/mL (≈ 0.369 µM) with Klebsiella RO 30; 8 µg/mL (≈ 11.8 µM) with Pseudomonas RL 112; 1 µg/mL (≈ 1.48 µM) in the experiment on Serratia RL 72; 0.5 µg/mL (≈ 0.739 µM) in the experiment with Escherichia coli SOL 90. Moreover, the MIC in the experiment with Enterobacter RO 154 was 0.5 µg/mL (≈ 0.739 µM).
Take `Cc1c(CN)cccc1C(=O)SCC1=C(C(=O)O)N2C(=O)C(NC(=O)C(=NOC3(C(=O)O)CCC3)c3csc(N)n3)C2[S+]([O-])C1` (centres unmarked) [compound 42536]: the MIC in the experiment with Citrobacter RL 49 is 0.25 µg/mL (≈ 0.369 µM); in [1], no more than 0.125 µg/mL; with Klebsiella RO 30, 0.25 µg/mL (≈ 0.369 µM); in the experiment with Pseudomonas RL 112, 8 µg/mL (≈ 11.8 µM); with Serratia RL 72, 0.5 µg/mL (≈ 0.739 µM); in the experiment with Escherichia coli SOL 90, 0.5 µg/mL (≈ 0.739 µM). Further, the MIC in the experiment with Enterobacter RO 154 was determined as 0.5 µg/mL (≈ 0.739 µM).
In the case of `CC(C)(ON=C(C(=O)NC1C(=O)N2C(C(=O)O)=C(CSC(=O)C3CCN(C(=O)CN)CC3)C[S+]([O-])C12)c1csc(N)n1)C(=O)O` (centres unmarked) [compound 42673], the MIC in the experiment with Escherichia coli 255/L.7 is 0.25 µg/mL (≈ 0.365 µM); in experiment [2], 0.25 µg/mL (≈ 0.365 µM); in [3] it was 0.0625 µg/mL (≈ 0.0911 µM); in the experiment on Escherichia coli 255, 0.25 µg/mL (≈ 0.365 µM); in experiment [4] it was 0.25 µg/mL (≈ 0.365 µM).
